Laboratory results as given in patent US11826375B2, “Phosphinic amide prodrugs of tenofovir” (Merck Sharp & Dohme LLC, priority 2018, dated 2023).

system: HIV-1; assay: Human PBMC based HIV-1 replication assay; assay type: cell-based; conditions: Human immunodeficiency virus 1, PBMC, PHA-activated human PBMCs, 24 h preincubation with compound, infected with GFP-encoding HIV-1 construct
Experimental: Assessing Antiviral Potency in a Human PBMC Based HIV-1 Replication Assay
The antiviral activity of the tenofovir prodrugs of the Examples herein was assessed in a human peripheral blood mononuclear cell (PBMC) based HIV-1 replication assay and performed as follows. Human PBMCs were treated with PHA ([…]) in RPMI 1640 medium containing 10% heat inactivated FBS for 2 to 3 days. Compound plates were prepared by dispensing compounds dissolved in DMSO into wells of 384 well poly-D-lysine-coated plates (0.2 μl/well) using an ECHO acoustic dispenser. Each compound was tested in a 10-point serial 3-fold dilution (typical final concentrations: 5.0 μM-0.1 nM). Controls included no inhibitor (DMSO only) and a combination of three antiviral agents (efavirenz, indinavir, an in-house integrase strand transfer inhibitor at final concentrations of 4 μM each). PHA-activated human PBMCs were added to the compound plates and incubated for 24 hours at 37° C./5% CO2/90% relative humidity. The PBMCs were then infected with an HIV-1 construct that encodes Green Fluorescence Protein (GFP) and the infected cells were incubated at 37° C./5% CO2/90% relative humidity for additional 24 hours.
Infected cells were quantified by counting the number of green cells in each well using an Acumen eX3 scanner. IC50 values were determined by non-linear 4-parameter curve fitting.

SMILES | IC50
CCCOC(=O)C(C)(C)NP(=O)(CO[C@H](C)Cn1cnc2c(N)ncnc21)C(C(=O)OC(C)C)c1ccccc1 (stereo partly drawn) [Example 5, Propyl 2-((((R)-1-(6-amino-9H-purin-9-yl)propan-2-yloxy)methyl)(2-isopropoxy-2-oxo-1-phenylethyl)phosphorylamino)-2-methylpropanoate] | 58.8 nM
CCCOC(=O)C(C)(C)NP(=O)(CO[C@H](C)Cn1cnc2c(N)ncnc21)C(C#N)C#N (single isomer, unassigned) [Example 6A] | > 2100 nM
CCCOC(=O)C(C)(C)NP(=O)(CO[C@H](C)Cn1cnc2c(N)ncnc21)CC(=O)OC(C)(C)C (stereo partly drawn) [Example 8, Propyl 2-((((R)-1-(6-amino-9H-purin-9-yl)propan-2-yloxy)methyl)(2-tert-butoxy-2-oxoethyl)phosphorylamino)-2-methylpropanoate] | > 2100 nM
CCCOC(=O)C(C)(C)NP(=O)(CO[C@H](C)Cn1cnc2c(N)ncnc21)C(C#N)C(=O)OC(C)C (stereo partly drawn) [Example 1, Propyl 2-((((R)-1-(6-amino-9H-purin-9-yl)propan-2-yloxy)methyl)(1-cyano-2-isopropoxy-2-oxoethyl)phosphorylamino)-2-methylpropanoate] | 1520 nM
CCCOC(=O)C(C)(C)NP(=O)(CC#N)CO[C@H](C)Cn1cnc2c(N)ncnc21 (stereo partly drawn) [Example 4, Propyl 2-((((R)-1-(6-amino-9H-purin-9-yl)propan-2-yloxy)methyl)(cyanomethyl)phosphorylamino)-2-methylpropanoate] | > 2100 nM
CCCOC(=O)C(C)(C)NP(=O)(CO[C@H](C)Cn1cnc2c(N)ncnc21)CC(=O)OC(C)C (single isomer, unassigned) [Example 3A] | 189 nM
CCCOC(=O)C(C)(C)NP(=O)(CO[C@H](C)Cn1cnc2c(N)ncnc21)Cc1ccccc1 (stereo partly drawn) [Example 9, Propyl 2-((((R)-1-(6-amino-9H-purin-9-yl)propan-2-yloxy)methyl)(benzyl)phosphorylamino)-2-methylpropanoate] | 965 nM

same assay, conditions: PHA-activated human PBMCs, 24 h preincubation with compound, infected with GFP-encoding HIV-1 construct

SMILES | IC50
CCCOC(=O)C(C)(C)NP(=O)(CO[C@H](C)Cn1cnc2c(N)ncnc21)C(C#N)C#N (single isomer, unassigned) [Example 6B] | > 2100 nM
CCCOC(=O)C(C)(C)NP(=O)(CO[C@H](C)Cn1cnc2c(N)ncnc21)CC(=O)OC(C)C (single isomer, unassigned) [Example 3B] | 226 nM
CCCOC(=O)C(C)(C)NP(=O)(CO[C@H](C)Cn1cnc2c(N)ncnc21)CC(=O)N(CC)CC (single isomer, unassigned) [Example 7B] | > 2100 nM
CCCOC(=O)C(C)(C)NP(=O)(CO[C@H](C)Cn1cnc2c(N)ncnc21)C(C(=O)OC(C)C)C(=O)OC(C)C (single isomer, unassigned) [Example 2A] | 73.9 nM
CCCOC(=O)C(C)(C)NP(=O)(CO[C@H](C)Cn1cnc2c(N)ncnc21)CC(=O)N(CC)CC (single isomer, unassigned) [Example 7A] | 931 nM
CCCOC(=O)C(C)(C)NP(=O)(CO[C@H](C)Cn1cnc2c(N)ncnc21)C(C(=O)OC(C)C)C(=O)OC(C)C (single isomer, unassigned) [Example 2B] | 6.8 nM

system: not listed separately; assay: Prodrug stability assay in bio-relevant media (Pancreatin solution in FaSSIF); assay type: in vitro ADME; conditions: HPLC peak area of prodrug at 5 h / 0 h, 0.5 mg/mL Pancreatin in FaSSIF, 37° C.
Experimental: Prodrug Stability Assay in Bio-Relevant Media
The following assay was employed to evaluate the stability of the prodrugs in simulated gastrointestinal tract conditions. Preparation of fasted state simulated intestinal fluid (FaSSIF) using Phares SIF Powder was carried out according to protocols from Phare Drug Delivery AG (Baselland, Switzerland). For sample preparation, 10 μL stock solutions (10 mM) of prodrug substance in DMSO was added to 990 μL of 0.5 mg/mL Pancreatin solution (Fisher CAS #8049-47-6) in FaSSIF. Two samples were prepared for each compound. If the sample was a clear solution, it was directly analyzed by HPLC. If the sample was not clear, the sample was diluted with 100% MeCN, maintained at 37° C. and observed 5 h later. If the sample was clear, HPLC analysis was directly performed. If the sample was still not clear, the sample was diluted with 100% ACN and assayed by HPLC. All the samples were vortexed for 3 min and observed before injection. For the diluted samples, the area is multiplied by a dilution factor when the data is analyzed. The analysis was carried out with an Agilent 1100 series HPLC with autosampler. The column was a Poroshell 120 EC-C18, 4.6×50 mm, 2.7 μm. The flow rate was 1.8 mL/min, and the injection volume was 5 or 10 μL. UV detection was in the range 210-400 nm. […]

SMILES | GI Tract stability
CCCOC(=O)C(C)(C)NP(=O)(CO[C@H](C)Cn1cnc2c(N)ncnc21)C(C(=O)OC(C)C)C(=O)OC(C)C (single isomer, unassigned) [Example 2B] | 87.2%
